Data taken from PubChem BioAssay (NCI).
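All cell lines were grown in 96-well plates and treated with compound for 48 hours. At the GI50, growth is halved. The concentration for full growth arrest is given as TGI.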

How the values were obtained:
Assay in all cases: DTP human tumour cell line panel, 48 h
HCT-116 colon = tested on: HCT-116 colon
NCI-H226 lung = tested on: NCI-H226 lung
MDA-MB-435 = tested on: MDA-MB-435
OVCAR-8 ovarian = tested on: OVCAR-8 ovarian
KM12 colon = tested on: KM12 colon
SK-MEL-28 melanoma = tested on: SK-MEL-28 melanoma
OVCAR-5 ovarian = tested on: OVCAR-5 ovarian
EKVX NSCLC = tested on: EKVX NSCLC
SNB-75 CNS = tested on: SNB-75 CNS
UACC-257 melanoma = tested on: UACC-257 melanoma

Structure (SMILES) | GI50 (HCT-116 colon) | TGI (HCT-116 colon) | GI50 (NCI-H226 lung) | TGI (NCI-H226 lung) | GI50 (MDA-MB-435) | TGI (MDA-MB-435) | GI50 (OVCAR-8 ovarian) | TGI (OVCAR-8 ovarian) | GI50 (KM12 colon) | TGI (KM12 colon) | GI50 (SK-MEL-28 melanoma) | TGI (SK-MEL-28 melanoma) | GI50 (OVCAR-5 ovarian) | TGI (OVCAR-5 ovarian) | GI50 (EKVX NSCLC) | TGI (EKVX NSCLC) | GI50 (SNB-75 CNS) | TGI (SNB-75 CNS) | GI50 (UACC-257 melanoma) | TGI (UACC-257 melanoma)
Cc1ccc(O)c(NC2=C(Cl)C(=O)N(Cc3ccccc3)C2=O)c1 | 31.2 µM | > 100 µM | 15 µM | 37.3 µM | 28.4 µM | 76.1 µM | 18.3 µM | 39.3 µM | 40.7 µM | > 100 µM | 22.3 µM | 54.1 µM | 33.3 µM | 89.1 µM | 35.9 µM | > 100 µM | – | – | – | –
CCOc1ccc(C(C)=O)cc1NC(=O)c1cccc(-c2nnn(CC)n2)c1 | 0.419 µM | > 100 µM | 11.2 µM | > 100 µM | 0.308 µM | 2.34 µM | 1.29 µM | > 100 µM | – | – | 4.75 µM | > 100 µM | 9.34 µM | > 100 µM | 0.83 µM | > 100 µM | 0.209 µM | 12.7 µM | – | –
CC12OC(C(=O)C13CCC3)C1C(=O)c3ccc4c(ccc5ccccc54)c3C(=O)C12 (centres undefined) | 11.4 µM | 24.8 µM | – | – | 12.8 µM | 30.3 µM | 6.49 µM | > 100 µM | – | – | 36.1 µM | > 100 µM | 17.8 µM | 33.9 µM | 20.7 µM | 63.7 µM | 18.1 µM | 37.7 µM | 10.7 µM | 39.3 µM
CN(C)CCCCCNc1c2ccccc2nc2cccc([N+](=O)[O-])c12 | 0.00583 µM | 0.012 µM | – | 0.057 µM | – | 0.000488 µM | – | – | – | 0.0725 µM | – | 0.0113 µM | 0.00264 µM | 0.0115 µM | – | 0.0128 µM | – | 0.00534 µM | – | > 0.0231 µM
Nc1ccc(-c2ccc3ncc4ccc(=O)n(-c5cccc(C(F)(F)F)c5)c4c3c2)cn1 | 0.0135 µM | 1.41 µM | < 0.01 µM | 4.7 µM | < 0.01 µM | 3.26 µM | < 0.01 µM | > 33.7 µM | < 0.0112 µM | 1.45 µM | < 0.01 µM | 11.5 µM | < 0.0145 µM | 31.5 µM | – | – | < 0.01 µM | 0.0227 µM | < 0.01 µM | 0.0708 µM
COc1cc(-c2cc3ncccc3c3[nH]c(=O)c4cccnc4c23)cc(OC)c1OC | – | – | 23.6 µM | > 100 µM | 0.181 µM | > 100 µM | 2.51 µM | > 100 µM | 0.651 µM | > 100 µM | 0.957 µM | > 100 µM | > 100 µM | > 100 µM | 0.818 µM | > 100 µM | 0.271 µM | 62.9 µM | – | –
Cc1cn2c(/C=N/N=C(N)N)c(-c3ccncc3)nc2s1 | 10.7 µM | 22.5 µM | 21.8 µM | 40.5 µM | 17.2 µM | 33.8 µM | 14.7 µM | 30.9 µM | 5.63 µM | 19.6 µM | – | – | 17.8 µM | 31.7 µM | 12.5 µM | 26.8 µM | – | – | 19.5 µM | 38.5 µM
